Values of other authors, collected in patent US20250231185A1, “Coronavirus T Cell Epitopes, Megapools and Uses Thereof” (La Jolla Institute for Immunology, priority 2021, published 2025).
Read-outs that look alike come from different tables or passages of the source.

Test system: CD8+ T cells
Conditions: cited from earlier work
[1] = SARS-CoV-2 Ag S, T cell type recognizing the epitope
[2] = CD8R (D) megapool epitopes, dominant = recognized by 3 or more donors/different studies
[3] = CD8RE megapool peptides (non-spike SARS-CoV-2 antigens), dominant epitope Yes/No
[4] = T cell subset (CD4 or CD8) recognizing the SARS-CoV-2-derived epitope
[5] = T cell type (CD4 or CD8) recognizing the SARS-CoV-2 epitope

1455 (SLIDLQEL) [compound 1455]
Restriction [1]: CD8

1719 (ISDYDYYRY) [compound 1719]
Dominant [2]: Yes (more dominant epitopes are defined by being recognized by 3 or more donors/different studies)

1712 (TVLSFCAFAV) [compound 1712]
Dominant [2]: Yes (more dominant epitopes are defined by being recognized by 3 or more donors/different studies)

2946 (VLSEARQHL) [compound 2946]
Dominant [3]: Yes (more dominant epitopes are defined by being recognized by 3 or more donors/different studies)

2984 (KQFDTYNLW) [compound 2984]
Dominant [3]: Yes (more dominant epitopes are defined by being recognized by 3 or more donors/different studies)

3007 (STFNVPMEK) [compound 3007]
Dominant [3]: Yes (more dominant epitopes are defined by being recognized by 3 or more donors/different studies)

1773 (FLPRVFSAV) [compound 1773]
Dominant [2]: Yes (more dominant epitopes are defined by being recognized by 3 or more donors/different studies)

3037 (IPIQASLPF) [compound 3037]
Dominant [3]: Yes (more dominant epitopes are defined by being recognized by 3 or more donors/different studies)

1725 (FYAYLRKHF) [compound 1725]
Dominant [2]: Yes (more dominant epitopes are defined by being recognized by 3 or more donors/different studies)

588 (FELDERIDKVL) [compound 588]
Restriction [4]: CD8

616 (NLYDKLVSSFL) [compound 616]
Restriction [4]: CD8

2983 (MMISAGFSL) [compound 2983]
Dominant [3]: Yes (more dominant epitopes are defined by being recognized by 3 or more donors/different studies)

1444 (WFVTQRNFY) [compound 1444]
Restriction [1]: CD8

605 (NSFSGYLKL) [compound 605]
Restriction [4]: CD8

1332 (NTSNQVAVLY) [compound 1332]
Restriction [1]: CD8

1432 (HVTYVPAQEK) [compound 1432]
Restriction [1]: CD8

1426 (QSAPHGVVF) [compound 1426]
Restriction [1]: CD8

1737 (SSNVANYQK) [compound 1737]
Dominant [2]: Yes (more dominant epitopes are defined by being recognized by 3 or more donors/different studies)

1690 (GTGPEAGLPY) [compound 1690]
Dominant [2]: Yes (more dominant epitopes are defined by being recognized by 3 or more donors/different studies)

2961 (RILGAGCFV) [compound 2961]
Dominant [3]: Yes (more dominant epitopes are defined by being recognized by 3 or more donors/different studies)

2971 (KLNVGDYFV) [compound 2971]
Dominant [3]: Yes (more dominant epitopes are defined by being recognized by 3 or more donors/different studies)

1058 (LLADKFPVL) [compound 1058]
Restriction [5]: CD8

1007 (LPYPDPSRIL) [compound 1007]
Restriction [5]: CD8

1674 (RLFARTRSMW) [compound 1674]
Dominant [2]: Yes (more dominant epitopes are defined by being recognized by 3 or more donors/different studies)

624 (APYIVGDVV) [compound 624]
Restriction [4]: CD8

1726 (RILGAGCFV) [compound 1726]
Dominant [2]: Yes (more dominant epitopes are defined by being recognized by 3 or more donors/different studies)

1718 (FVDGVPFVV) [compound 1718]
Dominant [2]: Yes (more dominant epitopes are defined by being recognized by 3 or more donors/different studies)

1039 (YVFCTVNAL) [compound 1039]
Restriction [5]: CD8

2920 (YYRRATRRIR) [compound 2920]
Dominant [3]: Yes (more dominant epitopes are defined by being recognized by 3 or more donors/different studies)

530 (DYKHWPQIAQF) [compound 530]
Restriction [4]: CD8

598 (LEFGATSAAL) [compound 598]
Restriction [4]: CD8

1456 (LQELGKYEQY) [compound 1456]
Restriction [1]: CD8

545 (TPSGTWLTY) [compound 545]
Restriction [4]: CD8

1814 (VFITLCFTLK) [compound 1814]
Dominant [2]: Yes (more dominant epitopes are defined by being recognized by 3 or more donors/different studies)

1413 (LITGRLQSL) [compound 1413]
Restriction [1]: CD8

697 (ASRELKVTF) [compound 697]
Restriction [4]: CD8

2981 (SYATHSDKF) [compound 2981]
Dominant [3]: Yes (more dominant epitopes are defined by being recognized by 3 or more donors/different studies)

1701 (AQFAPSASAF) [compound 1701]
Dominant [2]: Yes (more dominant epitopes are defined by being recognized by 3 or more donors/different studies)

1748 (MMISAGFSL) [compound 1748]
Dominant [2]: Yes (more dominant epitopes are defined by being recognized by 3 or more donors/different studies)

2957 (RLYYDSMSY) [compound 2957]
Dominant [3]: Yes (more dominant epitopes are defined by being recognized by 3 or more donors/different studies)

1779 (VRIQPGQTF) [compound 1779]
Dominant [2]: Yes (more dominant epitopes are defined by being recognized by 3 or more donors/different studies)

3013 (TPKYKFVRI) [compound 3013]
Dominant [3]: Yes (more dominant epitopes are defined by being recognized by 3 or more donors/different studies)

1717 (KLFDRYFKY) [compound 1717]
Dominant [2]: Yes (more dominant epitopes are defined by being recognized by 3 or more donors/different studies)

977 (SICSTMTNR) [compound 977]
Restriction [5]: CD8

2949 (YTMADLVYAL) [compound 2949]
Dominant [3]: Yes (more dominant epitopes are defined by being recognized by 3 or more donors/different studies)

2910 (SMWSFNPET) [compound 2910]
Dominant [3]: Yes (more dominant epitopes are defined by being recognized by 3 or more donors/different studies)

3043 (FTSDYYQLY) [compound 3043]
Dominant [3]: Yes (more dominant epitopes are defined by being recognized by 3 or more donors/different studies)

1735 (VYRGTTTYKL) [compound 1735]
Dominant [2]: Yes (more dominant epitopes are defined by being recognized by 3 or more donors/different studies)

664 (YMSALNHTK) [compound 664]
Restriction [4]: CD8

994 (FVNEFYAYL) [compound 994]
Restriction [5]: CD8

3000 (YLATALLTL) [compound 3000]
Dominant [3]: Yes (more dominant epitopes are defined by being recognized by 3 or more donors/different studies)

1372 (EVFAQVKQI) [compound 1372]
Restriction [1]: CD8

982 (MPNMLRIMASL) [compound 982]
Restriction [5]: CD8

1066 (AGFSLWVYK) [compound 1066]
Restriction [5]: CD8

546 (KLDDKDPNF) [compound 546]
Restriction [4]: CD8

658 (FEYYHTTDPSF) [compound 658]
Restriction [4]: CD8

1758 (KTIQPRVEK) [compound 1758]
Dominant [2]: Yes (more dominant epitopes are defined by being recognized by 3 or more donors/different studies)

1311 (FERDISTEI) [compound 1311]
Restriction [1]: CD8

1693 (VLQLPQGTTL) [compound 1693]
Dominant [2]: Yes (more dominant epitopes are defined by being recognized by 3 or more donors/different studies)

661 (TTDPSFLGRY) [compound 661]
Dominant (SARS-CoV-2-derived CD8 epitopes, dominant = recognized by 3 or more donors/different studies): Yes (more dominant epitopes are defined by being recognized by 3 or more donors/different studies) | Restriction [4]: CD8

1450 (NASVVNIQK) [compound 1450]
Restriction [1]: CD8

1385 (LLTDEMIAQY) [compound 1385]
Restriction [1]: CD8

699 (VVAIDYKHY) [compound 699]
Restriction [4]: CD8

608 (EAKKVKPTV) [compound 608]
Restriction [4]: CD8

550 (YKTFPPTEPK) [compound 550]
Restriction [4]: CD8

1445 (IITTDNTFV) [compound 1445]
Restriction [1]: CD8

1077 (VVQQLPETY) [compound 1077]
Restriction [5]: CD8

544 (VTPSGTWLTY) [compound 544]
Restriction [4]: CD8

604 (IEVNSFSGY) [compound 604]
Restriction [4]: CD8

2964 (VLQAVGACV) [compound 2964]
Dominant [3]: Yes (more dominant epitopes are defined by being recognized by 3 or more donors/different studies)

567 (GFMGRIRSV) [compound 567]
Restriction [4]: CD8

2929 (LALLLLDRL) [compound 2929]
Dominant [3]: Yes (more dominant epitopes are defined by being recognized by 3 or more donors/different studies)

1443 (HWFVTQRNF) [compound 1443]
Restriction [1]: CD8

986 (IMASLVLAR) [compound 986]
Restriction [5]: CD8

3005 (YIFFASFYY) [compound 3005]
Dominant [3]: Yes (more dominant epitopes are defined by being recognized by 3 or more donors/different studies)

1424 (FPQSAPHGV) [compound 1424]
Restriction [1]: CD8

615 (AVFDKNLYDK) [compound 615]
Restriction [4]: CD8

919 (VPANSTVLSF) [compound 919]
Restriction [5]: CD8

1698 (KPRQKRTAT) [compound 1698]
Dominant [2]: Yes (more dominant epitopes are defined by being recognized by 3 or more donors/different studies)

593 (YLFDESGEF) [compound 593]
Restriction [4]: CD8

1078 (KPRSQMEIDF) [compound 1078]
Restriction [5]: CD8

1786 (MPASWVMRI) [compound 1786]
Dominant [2]: Yes (more dominant epitopes are defined by being recognized by 3 or more donors/different studies)

690 (NYYKKDNSY) [compound 690]
Restriction [4]: CD8

1744 (IEYPIIGDEL) [compound 1744]
Dominant [2]: Yes (more dominant epitopes are defined by being recognized by 3 or more donors/different studies)

529 (ELIRQGTDY) [compound 529]
Restriction [4]: CD8

1037 (IPARARVEC) [compound 1037]
Restriction [5]: CD8

596 (DDYQGKPLEF) [compound 596]
Restriction [4]: CD8
